Measured values published in patent US20260091031A1, “CGRP RECEPTOR ANTAGONISTS FOR TREATING CHEMOTHERAPY-INDUCED NAUSEA AND VOMITING (CINV)” (priority 2022, published 2026).

Columns and labels:
[1] = Accumulation of gepants in trigeminal ganglion and cerebral cortex after oral administration (LC/MS of tissue extracts); assay type: in vivo; conditions: rat, 3 mg/kg oral, 6 hrs after administration, transcardially perfused 10 min
Description: Animals have been transcardially perfused with cold saline for 10 min in order to remove blood contamination and the possible presence of gepants present in plasma. Upon perfusion, tissue specimens form the cerebral cortex (a region beyond the blood brain barrier) and from the trigeminal ganglion (a region before the blood brain barrier) have been collected and extracted with 10 volumes (weight/volume) of a solution of water/acetonitrile (50%/50%). Tissue extracts have been injected in a LC/MS apparatus to reveal the possible presence of the orally-administered gepants.
FIG. 1. Evaluation of the ability of gepants to accumulate within the trigeminal ganglion and cerebral cortex upon oral administration in the rat. […] Animals have been transcardially perfused for 10 min to remove contamination by gepants present in plasma.

[2] = tested on: nausea induced by cisplatin or cyclophosphamide in the rat; assay: Gaping events as index of nausea induced by cisplatin or cyclophosphamide; assay type: in vivo; conditions: 3 mg/kg oral 6 hrs before cisplatin (6 mg/kg i.p.) or cyclophosphamide (40 mg/kg i.p.), monitored for 4 hrs
Description: It is known that the induction of nausea by a chemical can be evaluated in rats measuring repetitive mouth opening (the so called “gaping”) (Autonomic Neuroscience, 2006, 129, 36-41). We have therefore evaluated the effects of rimegepant, ubrogepant, atogepant and zavegepant (3 mg/kg) on gaping prompted in rats by the anticancer drugs cisplatin (6 mg/kg, i.p.) or cyclophosphamide (40 mg/kg, i.p.). These drugs have been injected 6 hrs after the oral administration of the gepants to allow complete tissue drug absorption and distribution. Gaping was monitored for 4 hrs.
FIG. 2. Effects of gepants on nausea induced by cisplatin or cyclophosphamide in the rat. Rats (10 animals/group) received rimegepant, ubrogepant, atogepant and zavegepant orally (3 mg/kg) 6 hrs before an intraperitoneal injection of cisplatin (6 mg/kg) or cyclophosphamide (40 mg/kg). The number of gaping events were evaluated for 4 hrs as an index of nausea.

[3] = tested on: vomiting induced by cisplatin or cyclophosphamide in the shrew; assay: Vomiting events induced by cisplatin or cyclophosphamide; assay type: in vivo, shrew (Suncus Murinus); conditions: 3 mg/kg oral 6 hrs before cisplatin (6 mg/kg i.p.) or cyclophosphamide (40 mg/kg i.p.), monitored for 4 hrs
Description: Specifically, we have evaluated the effects of the oral administration of rimegepant, ubrogepant, atogepant and zavegepant (3 mg/kg) on vomiting events induced in the shrew by cisplatin (6 mg/kg i.p.) or cyclophosphamide (40 mg/kg i.p.). To allow complete gepant absorption and tissue distribution, cisplatin and cyclophosphamide have been administered 6 hrs after the gepants and animals monitored for 4 hrs.
FIG. 3. Effects of gepants on vomiting induced by cisplatin or cyclophosphamide in the shrew. Shrews (10 animals/group) have been orally administered with rimegepant, ubrogepant, atogepant and zavegepant (3 mg/kg) 6 hrs before the intraperitoneal injection of cisplatin (6 mg/kg) or cyclophosphamide (40 mg/kg) and the number of vomiting events evaluated for 4 hrs.

SMILES | presence in brain cortex extracts [1] | presence in trigeminal ganglion extracts [1] | number of gaping events (index of nausea) compared to controls [2] | number of vomiting events compared to controls [3]
C[C@@H]1[C@H](c2c(F)ccc(F)c2F)C[C@H](NC(=O)c2cnc3c(c2)C[C@@]2(C3)C(=O)Nc3ncccc32)C(=O)N1CC(F)(F)F [atogepant] | detectable | detectable | reduced number of gaping events | reduced number of vomiting events
N[C@@H]1c2cccnc2[C@H](OC(=O)N2CCC(n3c(=O)[nH]c4ncccc43)CC2)CC[C@H]1c1cccc(F)c1F [rimegepant] | detectable | detectable | reduced number of gaping events | reduced number of vomiting events
C[C@@H]1[C@H](c2ccccc2)C[C@H](NC(=O)c2cnc3c(c2)C[C@@]2(C3)C(=O)Nc3ncccc32)C(=O)N1CC(F)(F)F [ubrogepant] | detectable | detectable | reduced number of gaping events | reduced number of vomiting events
Cc1cc(C[C@@H](NC(=O)N2CCC(c3cc4ccccc4[nH]c3=O)CC2)C(=O)N2CCN(C3CCN(C)CC3)CC2)cc2cn[nH]c12 [zavegepant] | detectable | detectable | reduced number of gaping events | reduced number of vomiting events
